The numbers were not newly measured in patent US20100129431A1, “IDEBENONE COMPOSITION FOR THE TREATMENT OF NEUROLOGICAL DISORDERS” (AlphaRx Inc., priority 2008, published 2010), which cites them from elsewhere.

Each structure is given as a SMILES string.

For data set [1], the system named is patients with cerebrovascular disease. The conditions noted are these: 90 mg daily, nine patients.
The subject of data set [2] is cultured cortical neurons. The conditions noted are these: also when applied 30 minutes after the NMDA pulse.
The test system of data set [3] is Friedreich's Ataxia patients.
In data set [4] the test system is free radical species. The conditions noted are these: cell cultures.
For data set [5], the system named is microsomal lipid peroxidation. The conditions noted are these: induced by ADP-iron complexes or organic hydroperoxides.
Data set [6] concerns rats. As to conditions: cerebral embolization, cerebral ischemia or basal forebrain lesions.
For data set [7] the following is noted: clinical tests.
The conditions of data set [8]: oral.

On to `COC1=C(OC)C(=O)C(CCCCCCCCCCO)=C(C)C1=O` [Idebenone, 2,3-dimethoxy-5-methyl-6-(10-hydroxydecyl)-1,4-benzoquinone], for which the water solubility result was “low”. Also, the “EEG and clinical symptoms” value in data set [1] is “improvements in EEG and clinical symptoms”. Besides, the “protection against necrotic degeneration” value in data set [2] is “protects cultured cortical neurons against necrotic degeneration”. The left ventricular enlargement entry in data set [3] (5 mg/kg daily for 4-9 months, three patients) was “reduction of left ventricular enlargement”. In addition, the “marker of oxidative DNA damage” value in [3] (oral 5 mg/kg daily for 8 weeks) is “significantly decreased”. Also, the free radical scavenging entry in [4] is “scavenged a variety of free radical species”. Moreover, the microsomal lipid peroxidation result in [5] is “inhibit microsomal lipid peroxidation”. In addition, the “learning and memory disturbances” value in data set [6] was “ameliorates learning and memory disturbances”. Moreover, in data set [7], the “psychological deficits (memory retention, disorientation)” value was “effective in reducing psychological deficits”. The bioavailability result in data set [8] is on record as “relatively, high”.
